Laboratory results from paper PMC6105524 (Lipids, 2018).
Read-outs that look alike come from different tables or passages of the source. Each block holds one compound with its values, some of them ahead of it.

Legend:
[1] = Plasma unlabeled fatty acid concentrations; format: in vivo, human
[2] = ref Domenichiello et al. 2014, Domenichiello et al. 2016, Metherel et al. 2018, cited from earlier work
[3] = compartmental modeling, humans; ref Pawlosky et al. 2001; cited from earlier work
[4] = format: in vivo, human; settings: for F (turnover of esterified n-3 HUFA in plasma): Jsyn / amount in plasma total lipids; for Time first detected in plasma: after beginning infusion; for Total esterified amount in plasma at 7 h: 7 h of infusion
[5] = subject S01, unlabeled, mean of 17 time points, low linoleate diet
[6] = subject S02, unlabeled, mean of 17 time points, low linoleate diet
[7] = subject S01, 8 h iv infusion of d5-ALA-albumin 0.78 mg/kg BW/hr
[8] = subject S01, k1 x unesterified ALA 2.52 nmol/mL
[9] = subject S02, 8 h iv infusion of d5-ALA-albumin 0.78 mg/kg BW/hr
[10] = subject S02, k1 x unesterified ALA 4.74 nmol/mL

Compound: CCCCCCCCCCCCCC(=O)O [14:0]
Fatty acid concentration in plasma total lipids (mean) [1, 5]: 43.9 nmol/mL
Fatty acid concentration in plasma total lipids (mean) [1, 6]: 36.8 nmol/mL

Compound: CCCCCCCCCCCCCCCC(=O)O [16:0]
Fatty acid concentration in plasma total lipids (mean) [1, 5]: 1265 nmol/mL
Fatty acid concentration in plasma total lipids (mean) [1, 6]: 1152 nmol/mL

Compound: CCCCCC/C=C\CCCCCCCC(=O)O [16:1n-7]
Fatty acid concentration in plasma total lipids (mean) [1, 5]: 153 nmol/mL
Fatty acid concentration in plasma total lipids (mean) [1, 6]: 91.9 nmol/mL

Compound: CCCCCCCCCCCCCCCCCC(=O)O [18:0]
Fatty acid concentration in plasma total lipids (mean) [1, 5]: 367 nmol/mL
Fatty acid concentration in plasma total lipids (mean) [1, 6]: 374 nmol/mL

Compound: CCCCCC/C=C/CCCCCCCCCC(=O)O [18:1n-7]
Fatty acid concentration in plasma total lipids (mean) [1, 5]: 98.0 nmol/mL
Fatty acid concentration in plasma total lipids (mean) [1, 6]: 104 nmol/mL

Fatty acid concentration in plasma total lipids (mean) ([1]; in vivo): 896 nmol/mL
Compound: CCCCCCCC/C=C\CCCCCCCC(=O)O [18:1n-9]

Compound: CCCCC/C=C\C/C=C\C/C=C\CCCCC(=O)O [18:3n-6]
Fatty acid concentration in plasma total lipids (mean) [1, 5]: 15.3 nmol/mL
Fatty acid concentration in plasma total lipids (mean) [1, 6]: 12.3 nmol/mL

Compound: CCCCCCCC/C=C\CCCCCCCCCC(=O)O [20:1n-9]
Fatty acid concentration in plasma total lipids (mean) [1, 5]: 7.8 nmol/mL
Fatty acid concentration in plasma total lipids (mean) [1, 6]: 9.3 nmol/mL

Compound: CCCCC/C=C\C/C=C\CCCCCCCCCC(=O)O [20:2n-6]
Fatty acid concentration in plasma total lipids (mean) [1, 5]: 8.6 nmol/mL
Fatty acid concentration in plasma total lipids (mean) [1, 6]: 13.6 nmol/mL

Compound: CCCCC/C=C\C/C=C\C/C=C\CCCCCCC(=O)O [20:3n-6]
Fatty acid concentration in plasma total lipids (mean) [1, 5]: 98.2 nmol/mL
Fatty acid concentration in plasma total lipids (mean) [1, 6]: 79.1 nmol/mL

Compound: CCCCCCCCCCCCCCCCCCCCCC(=O)O [22:0]
Fatty acid concentration in plasma total lipids (mean) [1, 5]: 30.5 nmol/mL
Fatty acid concentration in plasma total lipids (mean) [1, 6]: 17.4 nmol/mL

Compound: CCCCC/C=C\C/C=C\C/C=C\C/C=C\CCCCCC(=O)O [22:4n-6]
Fatty acid concentration in plasma total lipids (mean) [1, 5]: 9.6 nmol/mL
Fatty acid concentration in plasma total lipids (mean) [1, 6]: 8.5 nmol/mL

Compound: CCCCC/C=C\C/C=C\C/C=C\C/C=C\C/C=C\CCC(=O)O [22:5n-6]
Fatty acid concentration in plasma total lipids (mean) [1, 5]: 16.8 nmol/mL
Fatty acid concentration in plasma total lipids (mean) [1, 6]: 8.0 nmol/mL

Compound: CCCCCCCCCCCCCCCCCCCCCCCC(=O)O [24:0]
Fatty acid concentration in plasma total lipids (mean) [1, 5]: 21.5 nmol/mL
Fatty acid concentration in plasma total lipids (mean) [1, 6]: 15.2 nmol/mL

Compound: CCCCCCCC/C=C\CCCCCCCCCCCCCC(=O)O [24:1n-9]
Fatty acid concentration in plasma total lipids (mean) [1, 5]: 48.1 nmol/mL
Fatty acid concentration in plasma total lipids (mean) [1, 6]: 21.8 nmol/mL

Compound: CC/C=C\C/C=C\C/C=C\CCCCCCCC(=O)O [ALA, α-linolenic acid]
Plasma concentration of unesterified unlabeled ALA ([1]; subject S01): 2.52 nmol/mL
Fatty acid concentration in plasma total lipids (mean) [1, 5]: 24.3 nmol/mL
Plasma concentration of unesterified unlabeled ALA ([1]; subject S02): 4.74 nmol/mL
Fatty acid concentration in plasma total lipids (mean) [1, 6]: 33.5 nmol/mL

Smax (maximal first derivative of plasma total amount time-course of newly synthesized d5-n-3 HUFA) ([4]; subject S01): 0.67 nmol/min
k1 (synthesis-secretion coefficient) ([4]; subject S01): 0.39 mL/min
Time at Smax [4, 7]: 109 min
F (turnover of esterified n-3 HUFA in plasma) ([4]; subject S01): 2.6e-06 min⁻¹
Jsyn (whole body synthesis-secretion rate from circulating unesterified 18:3n-3) [4, 8]: 0.99 nmol/min
Smax (maximal first derivative of plasma total amount time-course of newly synthesized d5-n-3 HUFA) ([4]; subject S02): 0.21 nmol/min
k1 (synthesis-secretion coefficient) ([4]; subject S02): 0.12 mL/min
Time at Smax [4, 9]: 125 min
F (turnover of esterified n-3 HUFA in plasma) ([4]; subject S02): 3.7e-06 min⁻¹
Jsyn (whole body synthesis-secretion rate from circulating unesterified 18:3n-3) [4, 10]: 0.56 nmol/min
Compound: CC/C=C\C/C=C\C/C=C\C/C=C\C/C=C\C/C=C\CCC(=O)O [DHA, Docosahexaenoic acid]
Whole body synthesis-secretion rate of DHA from circulating ALA ([2]; rats consuming a high ALA diet): 1.5 µmol/day
Whole body synthesis-secretion rate of DHA from circulating ALA ([2]; rats consuming a low ALA containing diet): 0.045 µmol/day
Rate of mass flow from immediate precursor [3]: 0.464 µmol/day

Smax (maximal first derivative of plasma total amount time-course of newly synthesized d5-n-3 HUFA) ([4]; subject S01): 2.43 nmol/min
k1 (synthesis-secretion coefficient) ([4]; subject S01): 1.44 mL/min
Time at Smax [4, 7]: 94 min
F (turnover of esterified n-3 HUFA in plasma) ([4]; subject S01): 8.8e-05 min⁻¹
Jsyn (whole body synthesis-secretion rate from circulating unesterified 18:3n-3) [4, 8]: 3.62 nmol/min
Smax (maximal first derivative of plasma total amount time-course of newly synthesized d5-n-3 HUFA) ([4]; subject S02): 4.14 nmol/min
k1 (synthesis-secretion coefficient) ([4]; subject S02): 2.32 mL/min
Time at Smax [4, 9]: 156 min
F (turnover of esterified n-3 HUFA in plasma) ([4]; subject S02): 0.00019 min⁻¹
Jsyn (whole body synthesis-secretion rate from circulating unesterified 18:3n-3) [4, 10]: 11.0 nmol/min
Compound: CC/C=C\C/C=C\C/C=C\C/C=C\C/C=C\CCCCCC(=O)O [DPAn-3, docosapentaenoic acid]
Rate of mass flow from immediate precursor [3]: 0.075 µmol/day

Smax (maximal first derivative of plasma total amount time-course of newly synthesized d5-n-3 HUFA) ([4]; subject S01): 3.23 nmol/min
k1 (synthesis-secretion coefficient) ([4]; subject S01): 1.91 mL/min
Time at Smax [4, 7]: 190 min
F (turnover of esterified n-3 HUFA in plasma) ([4]; subject S01): 7.7e-05 min⁻¹
Jsyn (whole body synthesis-secretion rate from circulating unesterified 18:3n-3) [4, 8]: 4.81 nmol/min
Smax (maximal first derivative of plasma total amount time-course of newly synthesized d5-n-3 HUFA) ([4]; subject S02): 2.29 nmol/min
k1 (synthesis-secretion coefficient) ([4]; subject S02): 1.29 mL/min
Time at Smax [4, 9]: 215 min
F (turnover of esterified n-3 HUFA in plasma) ([4]; subject S02): 0.00015 min⁻¹
Jsyn (whole body synthesis-secretion rate from circulating unesterified 18:3n-3) [4, 10]: 6.09 nmol/min
Compound: CC/C=C\C/C=C\C/C=C\C/C=C\C/C=C\CCCC(=O)O [EPA, eicosapentaenoic acid]
Rate of mass flow from immediate precursor [3]: 0.021 µmol/day

Compound: CC/C=C\C/C=C\C/C=C\C/C=C\C/C=C\CCCCCCCC(=O)O [TPAn-3, tetracosapentaenoic acid]
Fatty acid concentration in plasma total lipids (mean) [1, 5]: 2.1 nmol/mL
Fatty acid concentration in plasma total lipids (mean) [1, 6]: 2.0 nmol/mL
Jsyn (whole-body synthesis-secretion rate) ([4]; both subjects): 0.5 to 0.6 nmol/min
Smax (maximal first derivative of plasma total amount time-course of newly synthesized d5-n-3 HUFA) ([4]; subject S01): 0.39 nmol/min
k1 (synthesis-secretion coefficient) ([4]; subject S01): 0.23 mL/min
Time at Smax [4, 7]: 98 min
F (turnover of esterified n-3 HUFA in plasma) ([4]; subject S01): 7.4e-05 min⁻¹
Jsyn (whole body synthesis-secretion rate from circulating unesterified 18:3n-3) [4, 8]: 0.58 nmol/min
Smax (maximal first derivative of plasma total amount time-course of newly synthesized d5-n-3 HUFA) ([4]; subject S02): 0.22 nmol/min
k1 (synthesis-secretion coefficient) ([4]; subject S02): 0.12 mL/min
Time at Smax [4, 9]: 150 min
F (turnover of esterified n-3 HUFA in plasma) ([4]; subject S02): 0.0001 min⁻¹
Jsyn (whole body synthesis-secretion rate from circulating unesterified 18:3n-3) [4, 10]: 0.58 nmol/min

Plasma concentration of unesterified d5-18:3n-3 at 6 h ([4]; in vivo): 4.37 nmol/mL
Time to reach steady-state plasma concentration of infused unesterified tracer ([4]; in vivo): about 10 min
Compound: [2H]C([2H])([2H])C([2H])([2H])/C=C\C/C=C\C/C=C\CCCCCCCC(=O)O [d5-18:3n-3, d5–17, 17, 18, 18, 18-18:3n-3, reference compound]

Time at Smax ([4]; both subjects): about 200 min
Time to achieve steady-state plasma concentration of esterified d5-HUFA ([4]; both subjects): about 5 hr
Smax (maximal first derivative of plasma total amount time-course of newly synthesized d5-n-3 HUFA) ([4]; subject S01): 3.23 nmol/min
Smax (maximal first derivative of plasma total amount time-course of newly synthesized d5-n-3 HUFA) ([4]; subject S02): 2.29 nmol/min
Compound: [2H]C([2H])([2H])C([2H])([2H])/C=C\C/C=C\C/C=C\C/C=C\C/C=C\CCCC(=O)O [d5-20:5n-3]

Time first detected in plasma [4]: 40 min
Time for which plasma amount increased before leveling off ([4]; both subjects): up to 4 h
Time to achieve steady-state plasma concentration of esterified d5-HUFA ([4]; both subjects): about 5 hr
Smax (maximal first derivative of plasma total amount time-course of newly synthesized d5-n-3 HUFA) ([4]; subject S01): 2.43 nmol/min
Total esterified amount in plasma at 7 h ([4]; subject S01): 580 nmol
Time at Smax [4, 7]: 94 min
Smax (maximal first derivative of plasma total amount time-course of newly synthesized d5-n-3 HUFA) ([4]; subject S02): 4.14 nmol/min
Total esterified amount in plasma at 7 h ([4]; subject S02): 920 nmol
Time at Smax [4, 9]: 156 min
Compound: [2H]C([2H])([2H])C([2H])([2H])/C=C\C/C=C\C/C=C\C/C=C\C/C=C\CCCCCC(=O)O [d5-22:5n-3]

Time first detected in plasma [4]: 40 min
Time for which plasma amount increased before leveling off ([4]; both subjects): up to 4 h
Time to achieve steady-state plasma concentration of esterified d5-HUFA ([4]; both subjects): about 5 hr
Smax (maximal first derivative of plasma total amount time-course of newly synthesized d5-n-3 HUFA) ([4]; subject S01): 0.67 nmol/min
Total esterified amount in plasma at 7 h ([4]; subject S01): 148 nmol
Smax (maximal first derivative of plasma total amount time-course of newly synthesized d5-n-3 HUFA) ([4]; subject S02): 0.21 nmol/min
Total esterified amount in plasma at 7 h ([4]; subject S02): 44 nmol
Compound: [2H]C([2H])([2H])C([2H])([2H])/C=C\C/C=C\C/C=C\C/C=C\C/C=C\C/C=C\CCC(=O)O [d5-22:6n-3]

Compound: tetracosahexaenoic acid [THA]
Fatty acid concentration in plasma total lipids (mean) [1, 5]: 2.8 nmol/mL
Fatty acid concentration in plasma total lipids (mean) [1, 6]: 1.5 nmol/mL
Jsyn (whole-body synthesis-secretion rate) ([4]; both subjects): 0.5 to 0.6 nmol/min
Smax (maximal first derivative of plasma total amount time-course of newly synthesized d5-n-3 HUFA) ([4]; subject S01): 0.41 nmol/min
k1 (synthesis-secretion coefficient) ([4]; subject S01): 0.24 mL/min
Time at Smax [4, 7]: 102 min
F (turnover of esterified n-3 HUFA in plasma) ([4]; subject S01): 5.8e-05 min⁻¹
Jsyn (whole body synthesis-secretion rate from circulating unesterified 18:3n-3) [4, 8]: 0.61 nmol/min
Smax (maximal first derivative of plasma total amount time-course of newly synthesized d5-n-3 HUFA) ([4]; subject S02): 0.17 nmol/min
k1 (synthesis-secretion coefficient) ([4]; subject S02): 0.10 mL/min
Time at Smax [4, 9]: 125 min
F (turnover of esterified n-3 HUFA in plasma) ([4]; subject S02): 0.0001 min⁻¹
Jsyn (whole body synthesis-secretion rate from circulating unesterified 18:3n-3) [4, 10]: 0.46 nmol/min
